Entries after “also recorded” stand apart in the source; their conditions may differ. Like-named read-outs stand apart in the source and are kept apart here.
Key:
[1] = 5-day oral tolerability study with terminal pharmacokinetics in BALB/c mice; type: in vivo; settings: 80 mg/kg or 100 mg/kg daily PO
Procedure: (§1) Fig 3 Oral RVn prodrugs maintain high serum levels after repeated dosing in mice and hamsters. Multiple-dose oral tolerability and pharmacokinetics in mice and Syrian hamsters: (A and B) 5-day oral tolerability study in BALB/c mice with pharmacokinetics obtained after the final dose. Male 20–22 g mice were given the indicated drugs at (A) 80 mg/kg or (B) 100 mg/kg PO daily in 0.1 M sodium carbonate/bicarbonate pH 9 for 5 days. Plasma was obtained after the last dose at 1, 3, 6, and 12 h (In Vivo Technologies, Moffatt Field, CA). (C) 7-day oral tolerability study in Syrian hamsters with pharmacokinetics obtained after the final dose. […] All plasma samples were analyzed to determine prodrug levels (Aliri Bio, Colorado Springs, CO).
After fortification, 50 µL of plasma was crashed with 400 µL of methanol containing 10 ng/mL of the internal standard (V2066). One hundred fifty microliters of the supernatant was removed and diluted with 150 µL of water in a clean 96 well injection plate.
Chromatography for the prodrugs was performed on a Raptor Biphenyl (2.1 × 50) column at a flow rate of 0.5 mL/min. A gradient method starting at 60% B (0.1% formic acid in 90:10 methanol:acetonitrile) for 30 s and then ramping to 95% B over 2.5 min. This composition was held for 1.0 min before being returned to starting conditions and re-equilibration to 40% A (10 mM ammonium formate with 0.2% formic acid in water).
Oral pharmacokinetic studies were carried out at In Vivo Technologies (Moffatt Field, CA) in male BALB/c mice, 22–23 g under IACUC protocol number IVT-11–010Y12 (LifeSource Animal Care and Use Committee). […] Blood was obtained by facial vein or terminal cardiac puncture at the indicated times and plasma was frozen for analysis. Similar procedures were followed for 5-day tolerability and terminal dose pharmacokinetic studies in mice at oral daily doses of 80 or 100 mg/kg.

[2] = test system: SARS-CoV-2 isolate USA-WA1/2020; test: microbe, parasite or virus in culture
[3] = test system: SARS-CoV-2 isolate USA-WA1/2020; test: microbe, parasite or virus in culture; type: cell-based; settings: for EC50 / EC90: Calu-3 cells, 44–48 hpi
[4] = Cell viability assay (CellTiter-Glo), A2T2-A549; settings: human, A2T2-A549 cells
[5] = test system: SARS-CoV-2 isolate USA-WA1/2020; design: method as in PMID 37040439; settings: Calu-3, dotted lines of Fig. 2 and 3 ref 7; read-out: in vitro EC90 for SARS-CoV-2 infection in Calu-3 cells; cited from earlier work
[6] = Cell viability assay (CellTiter-Glo), Vero-TMPRSS2; type: cell-based, African green monkey; settings: African green monkey, Vero-TMPRSS2 cells, 48 h incubation
Procedure: (§2) Cell viability assays (Table 1) were performed as previously described ([7]). Cells were cultured and seeded as per in vitro antiviral studies in opaque walled 96-well cell culture plates and incubated overnight for Huh7.5, A2T2-A549, and Vero-E6-TMPRSS2 cells and for 2 days for Calu-3 cells. Compounds or controls were added at the indicated concentrations in a total volume of 100 µL, and cells were incubated for 48 h. An equal volume of CellTiter-Glo reagent (Promega, Cat. #G7570) or CellTiter-Glo 2.0 reagent (Promega, Cat. #G9241) was added and mixed, and luminescence was recorded on a Veritas Microplate Luminometer (Turner BioSystems) or a Spark Multimode plate reader (Tecan) according to manufacturer instructions. Percent viability was normalized to DMSO controls, and CC50 values were derived from best fit curves calculated in Prism 10.

[7] = Single dose PO or IV plasma pharmacokinetics and tolerability in BALB/c mice; settings: for tolerability of single escalating oral doses: 20, 60 or 180 mg/kg single oral dose
[8] = in vivo; settings: male, BALB/c, mouse
[9] = test system: SARS-CoV-2 isolate USA-WA1/2020; test: microbe, parasite or virus in culture; remark: listed apart in the source
[10] = test system: SARS-CoV-2 isolate USA-WA1/2020; test: microbe, parasite or virus in culture; remark: listed apart in the source
[11] = 7-day oral tolerability study with terminal pharmacokinetics in Syrian hamsters; type: in vivo; settings: 100 mg/kg PO daily, 7 days
Procedure: as §1
A 7-day oral tolerability and terminal pharmacokinetic study in 100–125 g male Syrian hamsters were done at Attentive Sciences (Stillwell, KS), under IACUC approval number 1123–6788. […] Daily clinical observation and weights were obtained. After the day 7 oral dose blood was obtained at the indicated times and plasma was frozen for analysis.

[12] = test system: Calu-3 cells; design: method as in PMID 37040439; settings: Calu-3, CellTiter-Glo, previously published, identical conditions ref 7; cited from earlier work
[13] = test system: Huh7.5 cells; design: method as in PMID 37040439; settings: Huh7.5, CellTiter-Glo, previously published, identical conditions ref 7; cited from earlier work
[14] = test system: SARS-CoV-2 isolate USA-WA1/2020
[15] = test system: A2T2-A549 cells; test: Cell viability assay (CellTiter-Glo), A2T2-A549; settings: A2T2-A549, CellTiter-Glo, 48 h incubation
[16] = test system: SARS-CoV-2 isolate USA-WA1/2020; remark: listed apart in the source
[17] = test system: Vero-TMPRSS2 cells; test: Cell viability assay (CellTiter-Glo), Vero-TMPRSS2; type: cell-based, African green monkey; settings: 48 h incubation
Procedure: as §2

[18] = test system: SARS-CoV-2 isolate USA-WA1/2020; remark: listed apart in the source
[19] = Severe acute respiratory syndrome coronavirus 2
[20] = male, BALB/c, mouse, in vivo, iv, 7 mg/kg
[21] = male, BALB/c, mouse, in vivo, po, 20 mg/kg
[22] = male, BALB/c, mouse, in vivo, po, 60 mg/kg
[23] = male, BALB/c, mouse, in vivo, po, 180 mg/kg
[24] = IV, 7 mg/kg, BALB/c mice, plasma

With `CCCCCCCCCCCCCCCCCCOC[C@H](COP(=O)(O)OC[C@H]1O[C@@](C#N)(c2ccc3c(N)ncnn23)[C@H](O)[C@@H]1O)OCc1ccccc1` [Compound V2043, 1-O-octadecyl-2-O-benzyl-sn-glyceryl-P-RVn] the “tolerability of once-daily oral doses for 5 days” value [1] was “no adverse clinical effects were noted”, the EC50 ([2]; Severe acute respiratory syndrome coronavirus 2, Vero/TMPRSS2, read-out: EC50 μM ± SD) was 0.104 ± 0.03 µM and the EC90 ([2]; Severe acute respiratory syndrome coronavirus 2, Vero/TMPRSS2, read-out: EC90 μM ± SD) was 0.248 ± 0.052 µM. The EC50 [3, 19] was 0.168 ± 0.074 µM, the EC90 [3, 19] was 0.484 ± 0.142 µM and the CC50 at 48 h [4] was over 100 µM. The EC90 [5] was 320 nM, the CC50 at 48 h [6] was 82.6 µM and the “tolerability of single escalating oral doses” value ([7]; BALB/c mice) was “well tolerated with no appreciable adverse effects”. For the same compound, the AUC [7, 20] was 46.6 µM·h, the Cmax [7, 20] was 96.6 µM and the AUC [7, 21] was 90.1 µM·h. It also gave a Cmax [7, 21] of 10.6 µM, an AUC [7, 22] of 199 µM·h and a Cmax [7, 22] of 20.3 µM. The AUC [7, 23] was 211 µM·h, the Cmax [7, 23] was 17 µM and the half-life ([8]; iv, 7 mg/kg) was 42 min. The CL/F ([8]; po, 20 mg/kg) was 4.35 mL/min/kg, the Vd/F ([8]; po, 20 mg/kg) was 1.68 L/kg and the half-life ([8]; po, 20 mg/kg) was 268 min. It also gave a CL/F ([8]; po, 60 mg/kg) of 5.57 mL/min/kg, a Vd/F ([8]; po, 60 mg/kg) of 3.04 L/kg and a half-life ([8]; po, 60 mg/kg) of 379 min. The CL/F ([8]; po, 180 mg/kg) was 14.1 mL/min/kg, the Vd/F ([8]; po, 180 mg/kg) was 8.61 L/kg and the half-life ([8]; po, 180 mg/kg) was 424 min. For the same compound, the EC50 ([9]; Severe acute respiratory syndrome coronavirus 2, read-out: EC50 μM ± SD) was 0.566 ± 0.028 µM, the EC90 ([9]; Severe acute respiratory syndrome coronavirus 2, read-out: EC90 μM ± SD) was 1.62 ± 0.227 µM and the EC50 ([10]; Severe acute respiratory syndrome coronavirus 2, Huh7.5, read-out: EC50 μM ± SD) was 0.117 ± 0.009 µM. For the same compound, the EC90 ([10]; Severe acute respiratory syndrome coronavirus 2, Huh7.5, read-out: EC90 μM ± SD) was 0.293 ± 0.042 µM, the “tolerability of seven-day once-daily oral dosing” value [11] was “well tolerated without any appreciable toxicity; also recorded: No ill effects were reported” and the CC50 [12] was 58.3 µM.
In the case of `CCCCCCCCC=CCCCCCCCCOCC(COP(=O)(O)OCC1OC(C#N)(c2ccc3c(N)ncnn23)C(O)C1O)OCc1ccc(OC)c(F)c1` (centres unmarked) [Compound V2053], the “tolerability of once-daily oral doses for 5 days” value [1] is reported as “no adverse clinical effects were noted”, the “Relative activity vs RVn (RVN EC50/Test Compound EC50)” value ([3]; Calu-3) is reported as 9.0× and the EC50 [3] is reported as 0.074 ± 0.014 µM. The EC90 [3] was 0.153 ± 0.047 µM, the CC50 [13] was over 100 µM and the “Relative activity vs RVn (RVN EC50/Test Compound EC50)” value ([14]; A2T2-A549) was 7.3×. The “SI (CC50/EC50)” value ([14]; A2T2-A549) was over 243, the EC50 ([14]; read-out: EC50 μM ± SD, A2T2-A549 cells, 48 hpi) was 0.41 ± 0.04 µM and the EC90 ([14]; read-out: EC90 μM ± SD, A2T2-A549 cells, 48 hpi) was 0.811 ± 0.059 µM. The CC50 [15] was over 100 µM, the “Relative activity vs RVn (RVN EC50/Test Compound EC50)” value ([16]; Vero-TMPRSS2) was 8.0× and the “SI (CC50/EC50)” value ([16]; Vero-TMPRSS2) was over 746. The EC50 ([16]; read-out: EC50 μM ± SD, Vero-TMPRSS2 cells, 32 hpi) was 0.134 ± 0.05 µM, the EC90 ([16]; read-out: EC90 μM ± SD, Vero-TMPRSS2 cells, 32 hpi) was 0.367 ± 0.139 µM and the EC90 [5] was 154 nM. For the same compound, the CC50 [17] was over 100 µM, the “tolerability of single escalating oral doses” value ([7]; BALB/c mice) was “well tolerated with no appreciable adverse effects” and the AUC [7, 24] was 9.58 µM·h. The Cmax [7, 24] was 30.2 µM, the T1/2 [7, 24] was 0.29 h and the AUC ([7]; Oral, 20 mg/kg, BALB/c mice) was 13.60 µM·h. The CL/F ([7]; Oral, 20 mg/kg, BALB/c mice) was 1.68 L/kg/h, the Cmax ([7]; Oral, 20 mg/kg, BALB/c mice) was 1.78 µM and the T1/2 ([7]; Oral, 20 mg/kg, BALB/c mice) was 6.04 h. For the same compound, the Vd/F ([7]; Oral, 20 mg/kg, BALB/c mice) was 14.60 L/kg, the AUC ([7]; Oral, 60 mg/kg, BALB/c mice) was 53.10 µM·h and the CL/F ([7]; Oral, 60 mg/kg, BALB/c mice) was 1.34 L/kg/h. It also gave a Cmax ([7]; Oral, 60 mg/kg, BALB/c mice) of 7.66 µM, a T1/2 ([7]; Oral, 60 mg/kg, BALB/c mice) of 3.44 h and a Vd/F ([7]; Oral, 60 mg/kg, BALB/c mice) of 6.67 L/kg. It also gave an AUC ([7]; Oral, 180 mg/kg, BALB/c mice) of 90.80 µM·h, a CL/F ([7]; Oral, 180 mg/kg, BALB/c mice) of 1.81 L/kg/h and a Cmax ([7]; Oral, 180 mg/kg, BALB/c mice) of 12.5 µM. For the same compound, the T1/2 ([7]; Oral, 180 mg/kg, BALB/c mice) was 7.06 h, the Vd/F ([7]; Oral, 180 mg/kg, BALB/c mice) was 18.50 L/kg and the “F% (oral bioavailability)” value ([7]; oral vs IV (7 mg/kg) prodrug exposure, printed on the 20 mg/kg oral lines, BALB/c mice) was 51.0%. For the same compound, the “Relative activity vs RVn (RVN EC50/Test Compound EC50)” value ([18]; Huh7.5) was 28.9×, the “SI (CC50/EC50)” value ([18]; Huh7.5) was >2,128 and the EC50 ([18]; read-out: EC50 μM ± SD, Huh7.5 cells, 48 hpi) was 0.047 ± 0.015 µM. The EC90 ([18]; read-out: EC90 μM ± SD, Huh7.5 cells, 48 hpi) was 0.136 ± 0.058 µM and the CC50 [12] was 58.7 µM.

From article PMC11459966, “Oral pharmacokinetics and efficacy of oral phospholipid remdesivir nucleoside prodrugs against SARS-CoV-2 in mice” (Antimicrobial Agents and Chemotherapy, 2024)
